According to the NIST ThermoML archive (doi:10.1016/j.jct.2012.05.023):
± gives the expanded uncertainty stated by the source.

Assay: xn = mol fraction of the nth substance listed
Conditions: 101.3 kPa, Liquid; for speed of sound: Sing-around technique in a fixed-path interferometer; for mass density: Vibrating tube method

c1ccc2c(c1)CCCC2 [1,2,3,4-tetrahydronaphthalene] + CCCCCCCCCCCC
Conditions	mass density, 293.15 K [kg/m3]	mass density, 303.15 K [kg/m3]	mass density, 313.15 K [kg/m3]	mass density, 323.15 K [kg/m3]	speed of sound, 293.15 K [m/s]	speed of sound, 303.15 K [m/s]	speed of sound, 313.15 K [m/s]	speed of sound, 323.15 K [m/s]	speed of sound, 333.15 K [m/s]
x1 = 0.1021	763.04 ± 0.24	755.74 ± 0.24	748.42 ± 0.24	741.07 ± 0.25	1308.1 ± 1.2	1269.8 ± 1.2	1232.1 ± 1.2	1194.9 ± 1.2	1158.3 ± 1.2
x1 = 0.2015	777.99 ± 0.24	770.65 ± 0.24	763.25 ± 0.24	755.85 ± 0.24	1318.1 ± 1.2	1280 ± 1.2	1242.2 ± 1.2	1205.4 ± 1.2	1168.6 ± 1.2
x1 = 0.307	795.31 ± 0.24	787.92 ± 0.24	780.5 ± 0.24	773.06 ± 0.24	1331.6 ± 1.2	1293.4 ± 1.2	1255.9 ± 1.2	1218.9 ± 1.2	1182.6 ± 1.2
x1 = 0.3998	811.97 ± 0.24	804.53 ± 0.24	797.07 ± 0.24	789.61 ± 0.24	1344 ± 1.2	1306 ± 1.2	1268.5 ± 1.2	1231.6 ± 1.2	1195.2 ± 1.2
x1 = 0.4985	831.41 ± 0.24	823.91 ± 0.24	816.39 ± 0.24	808.85 ± 0.24	1359.7 ± 1.2	1321.7 ± 1.2	1284.3 ± 1.2	1247.4 ± 1.2	1211 ± 1.2
x1 = 0.5961	852.66 ± 0.24	845.1 ± 0.24	837.52 ± 0.24	829.89 ± 0.24	1377 ± 1.2	1339 ± 1.2	1301.5 ± 1.2	1264.5 ± 1.2	1228.2 ± 1.2
x1 = 0.7019	878.22 ± 0.24	870.59 ± 0.24	862.94 ± 0.24	855.26 ± 0.24	1399.4 ± 1.2	1361.2 ± 1.2	1323.6 ± 1.2	1286.7 ± 1.2	1250.3 ± 1.2
x1 = 0.8012	905.15 ± 0.24	897.44 ± 0.24	889.71 ± 0.24	881.98 ± 0.24	1423.8 ± 1.2	1385.4 ± 1.2	1347.6 ± 1.2	1310.5 ± 1.2	1274 ± 1.2
x1 = 0.8998	935.03 ± 0.25	927.23 ± 0.25	919.41 ± 0.25	911.58 ± 0.25	1453.4 ± 1.2	1414.7 ± 1.2	1376.6 ± 1.2	1339.2 ± 1.2	1302.5 ± 1.2
x1 = 1	969.52 ± 0.23	961.59 ± 0.23	953.66 ± 0.23	945.72 ± 0.23	1489.5 ± 1.3	1450.1 ± 1.2	1411.5 ± 1.2	1373.6 ± 1.2	1336.4 ± 1.2
